# Results reported in patent publication US4420481A, “Use of piperazine compounds as immunopotentiating agents” (Mitsuitoatsu Chemicals Inc., priority 1980, dated 1983).
# Structures can show the parent of a compound that is named as a salt.
# Legend:
# [1] = test system: EL-4 leukemic cells; experiment: Test 3: In-Vitro Test of Inhibition of Growth of Cancer Cell by Macrophage; type: cell-based
# Description: The results of the test of the action of the effective ingredient of the present invention on the macrophage will now be described with reference to the following Test 3. More specifically, the separated macrophage and EL-4 leukemic cell were mixed and cultured, and ^3 H-thymidine was added to a culture medium and the quantity of ^3 H-thymidine incorporated into the EL-4 cell was determined to examine the activity of the macrophage. When the macrophage is activated by administration of the effective ingredient of the present invention, inhibition of the growth of EL-4 cell, that is, phagocytosis of the cancer cell by the macrophage, is observed. Accordingly, if the take-in amount of ^3 H-thymidine is measured and this amount is reduced, it is confirmed that the macrophage has been activated. […] The dose was 8 mg per Kg of the body weight. To the control group, a physiological saline solution was similarly administered. After passage of 4 days, exuded abdominal cells were collected and deposited on a plastic Petri dish to collect microphages. Then, 1×10^6 of so obtained macrophages and 1×10^5 of EL-4 leukemic cells of C57 BL/6J mouse were mixed with cultured in an RPM1 1640 culture medium to which 10% of bovine embryo serum was added (at 37° C. in the presence of 5% of CO2) for 24 hours. Then, 0.1μ Ci of ^3 H-thymidine was added and culturing was further conducted for 16 hours. Cells were collected on a filter paper from the culture medium and the amount of ^3 H-thymidine taken in was determined by a liquid scintillation counter. […] For comparison, the test was similarly carried out by using Levamisol hydrochloride. Results
# [2] = test system: Sarcoma 180; experiment: Test 5: Test of Carcinostatic Effect to Sarcoma 180 by Subcutaneous Administration; type: in vivo, ICR female mice; conditions: 20 mg/Kg subcutaneous
# Description: To the control group, a physiological saline solution was similarly administered. […] The diameter D (mm) of the tumor was measured, and the average value and the number N of the living mice were determined to obtain results shown in Table 4.
# [3] = test system: adjuvant arthritis; experiment: Test 2: Adjuvant Arthritis Test; type: in vivo, SD male rats; conditions: rat, 5 mg/Kg subcutaneous, 9 times, left hind leg, * P<0.05, ** P<0.01
# [4] = test system: delayed hypersensitivity; experiment: Test 1: Test of Reinforcement of Delayed Hypersensitivity; type: in vivo, ICR male mice; conditions: mouse, in vivo
# Source text: Various test systems using animals have been proposed for determining the immunopotensiative action. Results of the test of reinforcement of the delayed hypersensitivity, which is a typical test among these tests, will now be described.
# This system was used for the test of reinforcement of the delayed hypersensitivity.
# One groups of eight ICR male mice, each having a body weight of about 30 g, were used for the test.
# Sensitization was effected by coating a 7% solution of picryl chloride in a 4/1 mixture of olive oil and acetone on the shaved abdomen of the mouse.
# Simultaneously with sensitization, a solution or suspension of the compound of the present invention in a 0.2% solution of carboxymethyl cellulose in a physiological saline solution was orally administered to the mouse at a dose of 50 mg per Kg of the body weight. To the control group, a 0.2% carboxymethyl cellulose solution in a physiological saline solution was similarly administered.
# The delayed hypersensitivity was challenged 7 days after sensitization by gripping the ear of the mouse by a forceps wrapped with a felt impregnated with a 1% solution of picryl chloride in olive oil and coating the ear with the solution. The thickness of the ear was measured before challenging and 24 hours after challenging and the ratio of increase of the thickness (average value of both the ears in eight mice±standard deviation) was obtained as shown in Table 1.
# For comparison, the test was similarly carried out by using Levamisol hydrochloride, and the obtained results are shown in Table 1. F.t tests were carried out. The group in which the test result was significant at a level of P<0.05 was marked by *, and the group in which the test result was significant at a level of P<0.01 ws marked by **.
# [5] = test system: Sarcoma 180; experiment: Test 4: Test of Antitumor Effect to Sarcoma 180 by Oral Administration; type: in vivo, ICR female mice; conditions: for D: average diameter of tumor: 100 mg/Kg oral once a day, 10 days
# Description: To the control group, a physiological saline solution was similarly administered. The dose of the compound was 100 mg per Kg of the body weight. The diameter D (mm) of the tumor was measured, and the average value and the number N of the living mice were determined to obtain results shown in Table 4.
smiles,measurement,setting,value
"c1ccc([C@H]2CN3CCSC3=N2)cc1 [Levamisole.hydrochloride, reference compound]",activation of macrophage / phagocytosis of cancer cells (in words),[1]; 8 mg/Kg intraperitoneal,hardly exhibits such action
same,inhibition of take-in of 3H-thymidine by EL-4 leukemic cells (in words),[1]; 8 mg/Kg intraperitoneal,does not exhibit such action
same,Take-In Ratio of 3H-thymidine (average value),"[1]; 8 mg/Kg intraperitoneal to mice, macrophages collected after 4 days, with EL-4 cells, control 80.2",49.0%
same,N: number of living mice,"[2]; 0 weeks, control 6",6
same,carcinostatic activity (in words),[2],no substantial carcinostatic activity
same,N: number of living mice,"[2]; 2 weeks, control 6",6
same,D: average diameter of tumor,"[2]; 2 weeks, control 10.8",7.7 mm
same,N: number of living mice,"[2]; 4 weeks, control 6",6
same,D: average diameter of tumor,"[2]; 4 weeks, control 16.6",14.8 mm
same,N: number of living mice,"[2]; 6 weeks, control 6",6
same,D: average diameter of tumor,"[2]; 6 weeks, control 20.3",14.4 mm
same,N: number of living mice,"[2]; 8 weeks, control 4",3
same,D: average diameter of tumor,"[2]; 8 weeks, control 31.2",30.2 mm
same,N: number of living mice,"[2]; 10 weeks, control 1",2
same,D: average diameter of tumor,"[2]; 10 weeks, control 40.5",31.6 mm
same,Swelling Ratio (average value ± standard variation),"[3]; 15 days, control 84.4 ± 9.0",65.2 ± 5.9%
same,Swelling Ratio (average value ± standard variation),"[3]; 18 days, control 103.2 ± 9.7",69.3 ± 7.1%
same,Swelling Ratio (average value ± standard variation),"[3]; 21 days, control 107.5 ± 13.3",80.7 ± 9.6%
same,Ratio of Increase of Ear Thickness (average value ± Standard Variation),[4],35.6 ± 2.4%
same,N: number of living mice,"[5]; 0 weeks, 100 mg/Kg oral, control 6",6
same,carcinostatic action (in words),"[5]; 100 mg/Kg oral, repeated",no substantial carcinostatic action was observed
same,D: average diameter of tumor,"[5]; 2 weeks, control 10.6",10.2 mm
same,N: number of living mice,"[5]; 2 weeks, 100 mg/Kg oral, control 6",6
same,D: average diameter of tumor,"[5]; 4 weeks, control 15.2",16.2 mm
same,N: number of living mice,"[5]; 4 weeks, 100 mg/Kg oral, control 6",6
same,D: average diameter of tumor,"[5]; 6 weeks, control 22.4",20.7 mm
same,N: number of living mice,"[5]; 6 weeks, 100 mg/Kg oral, control 6",6
same,D: average diameter of tumor,"[5]; 8 weeks, control 31.5",29.6 mm
same,N: number of living mice,"[5]; 8 weeks, 100 mg/Kg oral, control 5",6
same,D: average diameter of tumor,"[5]; 10 weeks, control 37.6",28.1 mm
same,N: number of living mice,"[5]; 10 weeks, 100 mg/Kg oral, control 1",6
